Legend:
Assay type in all cases: physicochemical
[1] = dialysis release of curcumin through cellulose membrane
Excerpt: Spectrum™ Spectra/Por™ 4 RC Dialysis Membrane Tubing 12,000 to 14,000 Dalton MWCO, cellulose, was used. The release conditions were pH 6.8, Polysorbate 1, 8%, Polysorbate 2, 4%. The pH 6.8 was used as Kiyohiko Sugano, Hirokazu Hamada, Minoru Machida, Hidetoshi Ushio, Kimitoshi Saitoh, Katsuhide Terada. Optimized conditions of bio-mimetic artificial membrane permeation assay. International Journal of Pharmaceutics Volume 228, Issues 1-2, 9 Oct. 2001, Pages 181-188 to simulate the conditions of the intestine, where the absorption of the compound is carried out. Concentrations of 8 and 4 percent of the polysorbates were used to ensure that the solution is above the CMC and the ability to form micelles is not lost, since the analytical method requires that an amount of release medium gets removed and replenish with simple medium (FEUM, volume 1, eleventh edition.).

[2] = integration of curcumin into aqueous phase with polysorbates (UV/VIS 424 nm); conditions: 25° C.
Method: Three concentrations of polysorbate of different value of HLB were evaluated in a 1:1 ratio for each mixture; With this combination of surfactants, 3 aqueous systems were prepared at concentrations of 0.0052%, 0.04% and 0.113% (% weight/weight). The first corresponds to a concentration below the individual Critical Micellar Concentration (CMC) of each surfactant 2.8529 mg/L, the second corresponds to a concentration slightly above the CMC 6.8439 mg/L and the third corresponds to a concentration well above the CMC, respectively 21.222 mg/L (FIG. 1). […] After 30 minutes of stirring at 500 RPM at 25° C., the suspensions were allowed to stand for 30 minutes and a sample from the supernatant was taken for UV/VIS spectrophotometric evaluation at 424 nm, using the 3 mentioned concentrations as blank.
The ability to form a micellar system of 1,7-bis (4-hydroxy-3-methoxyphenyl)-1,6-heptadien-3,5-dione at different percentages of polysorbates was evaluated.

[3] = suspension capacity of polysorbates for curcumin by gravimetry; conditions: Tween 80-Tween 20 (1:1)
Method: The suspension capacity of the polysorbates for 1,7-bis (4-hydroxy-3-methoxyphenyl)-1,6-heptadien-3,5-dione was evaluated by gravimetry according to P[…] THE UNITED MEXICAN STATES (FEUM), volume 1, eleventh edition.
Stating that at ratios of <100 of Tween 20 or 80, the capacity is not sufficient to suspend the required analyte dose. However, after 160 mg/mL (1:1) the presence of precipitate was found. In FIG. 2, different concentrations of polysorbate (Tween 80-Tween 20 (1:1) are specified in which, when mixed with analyte results in absence or presence of analyte precipitate (FIG. 3).

COc1cc(C=CC(=O)CC(=O)C=Cc2ccc(O)c(OC)c2)ccc1O [curcumin, 1,7-bis (4-hydroxy-3-methoxyphenyl)-1,6-heptadien-3,5-dione]
concentration released over time ([1]; absence of polysorbates in the medium): does not show any increase in concentration over time | concentration released over time ([1]; pH 6.8, Polysorbate 1 8%, Polysorbate 2 4%, 0.25 h to 20 h): increases with time | curcumin concentration in solution ([2]; polysorbates 0.0052% w/w (below CMC)): 2.8529 mg/L | curcumin concentration in solution ([2]; polysorbates 0.04% w/w (slightly above CMC)): 6.8439 mg/L | curcumin concentration in solution ([2]; polysorbates 0.113% w/w (well above CMC)): 21.222 mg/L | concentration after which presence of precipitate was found [3]: > 160000 µg/mL
